Laboratory results taken from patent US20020045191A1, “Inhibition of the SRC kinase family pathway as a method of treating HBV infection and hepatocellular carcinoma” (priority 2000, published 2002).

Tests used:
HBV [1] = experiment: HBV DNA replication in cytoplasmic core particles, Southern blot, HepG2 cells; format: cell-based, hepatitis B virus; conditions: for increase of reverse transcription and DNA replication of (HBx−)HBV: HepG2 cells, 4 d, valinomycin 1 nM, thapsigargin 20 nM
HBV [2] = experiment: HBV mRNA levels, Northern blot, HepG2 cells; format: cell-based, hepatitis B virus; conditions: for cytoplasmic levels of HBV pgRNA and HBsAg mRNAs: HepG2 cells, 4 d, valinomycin 1 nM, thapsigargin 20 nM
Description: (§1) TPA treatment was for […] using 20 ng/ml. […] (C) Chang cells transfected with vector or pAdCMVX were treated 2h with 0.5 mM or 3 mM EGTA, and Pyk2 examined by immunoblot. (D) HepG2 cells were transfected with HBV, HBx(−) HBV genomic DNA or vector, complemented by 2 μg plasmid pAdCMVX. Cytoplasmic HBV core particles were isolated from equal numbers of cells (Klein, et al. 1997, EMBOJ 18: 5019-5027) and viral DNA replication intermediates detected by Southern blot as described (Klein, et al. 1997, EMBOJ 18: 5019-5027). The smear represents 4 kb (mature double-stranded DNA) to 2 kb (first-strand single-stranded DNA). Northern blot analysis was carried out using poly(A+) RNA extracted from equal numbers of cells. (E) Southern and Northern blot analyses were performed on HepG2 cells transfected as above with or without pPKM or PPRKS. Typical experiments are shown.
FIG. 10. […] Products were resolved by electrophoresis and detected by autoradiography. Typical results are shown.
(§2) FIG. 11. (A) HepG2 cells were with HBV or HBx(−) HBV genomic DNA. At 24 h post-transfection cells were treated with 1 nM valinomycin (val.) or 20 nM thapsigargin (thap.) for 4 d, cytoplasmic core particles were isolated from equal numbers of cells and viral replication examined by Southern blot hybridization. HBV transcription was analyzed by Northern blot hybridization. (B) Nontransfected HepG2 cells 5were treated with valinomycin or thapsigargin as above, and the abundance of Pyk2 or activated Pyk2 Y-402 phosphorylation determined by immunoblot
The requirement for cytosolic calcium and HBx activation of Pyk2 in HBV replication was examined. […]
Studies next determined whether HBx activity can be replaced by ionophoric agents that increase cytosolic calcium. […]

Pyk2 [3] = experiment: Pyk2 activity (Y-402 phosphorylation immunoblot) in nontransfected HepG2 cells; format: cell-based, human; conditions: valinomycin 1 nM, thapsigargin 20 nM
Description: as §2
Studies next determined whether HBx activity can be replaced by ionophoric agents that increase cytosolic calcium. Cells were transfected with plasmids expressing wild type HBV or HBx(−) genomes and treated for 4 d with low, nontoxic levels of calcium mobilizing agents valinomycin (1 nM) or thapsigargin (20 nM). Reverse transcription and DNA replication of (HBx−)HBV were increased 20 fold by valinomycin to wild type (HBx+) levels, and 10 fold by thapsigargin (FIG. 11A).

Pyk2 [4] = experiment: Pyk2 Y-402 phosphorylation immunoblot, Chang cells; format: cell-based, human; conditions: for HBx activation of Pyk2: 0.5 mM EGTA 2 h, 50 μM BAPTA-AM 2 h, 3 μM CsA 4 h
Description: FIG. 9. Chang cells or HepG2 cells were transfected with expression vectors pAdCMVX (HBx), pAdCMVXo (HBx−), pPKM, or empty vectors pAdCMV or pPRK5. (A) Chang cells were treated with 50 μM BAPTA-AM for 2 h, equal protein amounts resolved by gel-electrophoresis and immunoblotted with antibodies to Pyk2 or activated Y-402 phosphorylated Pyk2.
as §1
Studies determined whether HBx acts on intracellular calcium to activate Pyk2. […] HBx activation of Pyk2 therefore involves cytosolic calcium action. Studies next determined whether HBx acts on calcium channels in the endoplasmic reticulum (ER), mitochondria or plasma membrane (PM) for its activity.

c-Src = c-Src immunoprecipitation and in vitro kinase assay (auto-phosphorylation, enolase trans-phosphorylation), NIH 3T3 cells; format: cell-based; conditions: serum-starved NIH 3T3 cells, PDGF (100 ng/ml) for 5 minutes
Description: FIG. 1. Serum-starved NIH 3T3 cells were infected with AdCMV-X or -Xo viruses, c-Src or c-Fyn was immunoprecipitated, the pellet washed and assayed by incubation with the substrate enolase and [γ-^32P] ATP. Products were resolved by SDS-10%-PAGE then visualized and quantitiated by PhosphorImage analysis.
c-Src (FIG. 1A) or c-Fyn (FIG. 1B) were immunoprecipitated 8 h p.i. from NIH 3T3 cell lysates expressing HBx or HBxo. Where indicated, cells were incubated with PDGF (100 ng/ml) for 5 min.
Src kinase assays were carried out essentially as described (Kypta et al., 1990, Cell 62:481-492). Briefly, NIH 3T3 or Chang cells were lysed in buffer containing 1% NP-40, 150 mM NaCl, 20 mM Tris HCl pH 8, 2.5 mM EDTA, 1 mM Na3VO4, 50 mM NaF, 1 mM PMSF, 10 μg/ml aprotinin, and 10 μg/ml leupeptin. Src and Fyn kinase activity were measured by immunoprecipitating either Src (1 μg anti-Src antibodies) or Fyn (1 μg/ml anti-Fyn antibodies) from equal amounts of cell lysate. […] For the reactions containing the Src peptide substrate, TCA was added to a final concentration of 20%, an aliquot was spotted onto phosphocellulose paper (UBI), the filters were washed 3×5 minutes in 0.75% phosphoric acid and once in acetone, dried and analyzed by scintillation counting. […]

[5] = Chang cells, high concentration of EGTA (3 mM)

Compound | increase of reverse transcription and DNA replication of (HBx−)HBV (HBV [1]) [fold] | cytoplasmic levels of HBV pgRNA and HBsAg mRNAs (HBV [2]) | stimulation of Pyk2 activity (Pyk2 [3]) [fold] | HBx activation of Pyk2 (Pyk2 [4]; Chang cells) | also measured
CC(C)[C@@H]1NC(=O)[C@H](C)OC(=O)[C@@H](C(C)C)NC(=O)[C@@H](C(C)C)OC(=O)[C@H](C(C)C)NC(=O)[C@H](C)OC(=O)[C@@H](C(C)C)NC(=O)[C@@H](C(C)C)OC(=O)[C@H](C(C)C)NC(=O)[C@H](C)OC(=O)[C@@H](C(C)C)NC(=O)[C@@H](C(C)C)OC1=O [valinomycin] | 20 | Neither agent increased | 5 |  | 
CC(=O)OCOC(=O)CN(CC(=O)OCOC(C)=O)c1ccccc1OCCOc1ccccc1N(CC(=O)OCOC(C)=O)CC(=O)OCOC(C)=O [BAPTA-AM] |  |  |  | prevented | HBx-induced Pyk2 phosphorylation at Y-402 (Pyk2 [4]; HBx transfected Chang cells, 50 μM (2 times IC50) for 2 h): prevented; Pyk2 levels (Pyk2 [4]; HBx transfected Chang cells, 50 μM for 2 h): without altering; impairment of HBV viral DNA replication (HBV [1]; HBV genome transfected HepG2 cells, low levels of BAPTA-AM (2.5 μM or 25 μM) for 4 d): 10 fold; HBV mRNA levels (HBV [2]; HBV genome transfected HepG2 cells, low levels of BAPTA-AM for 4 d): without strongly reducing
C/C=C(/C)C(=O)O[C@H]1C(C)=C2[C@H]([C@@H]1OC(=O)CCCCCCC)[C@@](C)(OC(C)=O)C[C@H](OC(=O)CCC)[C@@]1(O)[C@H]2OC(=O)[C@@]1(C)O [thapsigargin] | 10 | Neither agent increased | 3 |  | 
O=C(O)CN(CCOCCOCCN(CC(=O)O)CC(=O)O)CC(=O)O [EGTA] |  |  |  | no effect | TPA activation of Pyk2 phosphorylation (Pyk2 [4]; [5]): did not block; activation of Pyk2 by HBx (Pyk2 [4]; [5]): partially inhibited
PDGF |  |  |  |  | activation of c-Src (auto- and trans-phosphorylation) (c-Src): 3-4 fold
